Read-outs that look alike come from different tables or passages of the source.
Tests used:
[1] = biological target: T1, human recombinant AR (Homo sapiens, UniProt P15121); experiment: Inhibition of human recombinant AR, L-idose as substrate (NADPH oxidation at 340 nm); type: biochemical; details: human recombinant AR, 2 mM L-idose as substrate; mean ± S.E.M
T1 construct: made in house; host or cells: E. coli BL21(DE3)pLysS
Protocol: The human recombinant AR was expressed in BL21(DE3)pLysS E. coli cells and purified to electrophoretic homogeneity as previously described. The purified enzyme (specific activity 5.0 U/mg) was stored at −80 °C in 10 mM sodium phosphate buffer pH 7.0 containing 2 mM dithiothreitol and 30% (w/v) glycerol. AR activity was determined at 37 °C as previously described evaluating the decrease in absorbance at 340 nm linked to NADPH oxidation. […] One unit of enzyme activity is the amount that catalyzes the conversion of 1 μmol of substrate/min in the above assay conditions.
All compounds tested as aldose reductase inhibitors were dissolved in DMSO and added to the assay mixture containing 8 mU of purified AR. The reaction was started by addition of the substrate. The DMSO concentration in all the assays was kept constant at 0.5% (v/v) in order to avoid effects on AR activity.
The IC50 values were determined by nonlinear regression analysis using Prism GraphPad 6.0 fitting experimental data to the following equation:(1) vi/v0= Max−Min/1+( I/IC50)^slope +Min
In the equation, vi/v0, represents the ratio between the activity measured in the presence of the inhibitor and the activity measured in the absence of inhibitor; Max and Min represent the expected maximal and minimal value of the activity and were fixed at 1 and zero, respectively. Slope, which describes the steepness of curve in the transition region, was fixed at −1. For each compound, at least five different concentrations of inhibitor in the triplicate assay were analyzed.

[2] = biological target: T2, human recombinant PTP1B (Homo sapiens, UniProt P18031); experiment: Inhibition of human recombinant PTP1B, p-nitrophenyl phosphate as substrate; type: biochemical; details: human recombinant PTP1B, pNPP as substrate; mean ± S.E.M
T2 sequence (P18031 1-435): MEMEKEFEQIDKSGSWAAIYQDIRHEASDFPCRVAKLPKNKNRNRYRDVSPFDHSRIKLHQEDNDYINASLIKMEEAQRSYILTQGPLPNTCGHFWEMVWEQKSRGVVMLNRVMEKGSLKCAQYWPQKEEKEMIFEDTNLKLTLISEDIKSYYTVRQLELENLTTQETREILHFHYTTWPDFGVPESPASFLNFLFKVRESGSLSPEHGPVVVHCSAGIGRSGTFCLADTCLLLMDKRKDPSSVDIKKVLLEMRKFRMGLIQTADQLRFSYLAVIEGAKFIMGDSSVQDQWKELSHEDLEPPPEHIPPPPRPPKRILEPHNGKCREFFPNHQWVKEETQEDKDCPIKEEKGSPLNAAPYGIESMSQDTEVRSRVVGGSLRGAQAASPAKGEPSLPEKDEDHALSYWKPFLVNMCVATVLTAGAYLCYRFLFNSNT
Protocol: PTP1B activity was determined as follow. […] After an appropriate interval time, the reaction was stopped diluting assay solution with 2 mL of KOH 0.1 M. The amount of p-nitrophenol released was determined measuring the absorbance of the solution at 400 nm using a spectrophotometer and a 1-cm optical pathlength (εmM of p-nitrophenol is 18). The IC50 value was determined measuring the pNPP hydrolysis rate in the presence of increasing inhibitor concentration. For each inhibitor, 15–16 different concentrations were used. All tests were carried out in triplicate and data obtained were normalized respect to control sample.

[3] = biological target: T1, human recombinant AR; experiment: Kinetic analysis of AR inhibition (Lineweaver-Burk and secondary plots); type: biochemical; details: for AR Ki relative to K′i: Ki higher than K′i; for AR K′i (apparent dissociation constant, EIS complex) / Mechanism of AR inhibition / Ki: L-idose as substrate; for Ki: read-out: AR Ki (apparent dissociation constant)
Protocol: The kinetic analysis of compounds 4a, 4e and 4f was performed by measuring reaction rates with different L-idose concentrations s (S) in the absence and in the presence of different inhibitors concentrations. Data were analyzed by Linewever-Burk plots.

[4] = biological target: T2, human recombinant PTP1B; experiment: Kinetic analysis of PTP1B inhibition (Lineweaver-Burk plot); type: biochemical; details: pNPP as substrate; for Ki: read-out: PTP1B Ki (apparent dissociation constant)
Protocol: Kinetic analyses were carried out to dissect action mechanism of compound 4e and 4f. Briefly, the main kinetic parameters, Km and Vmax, were calculated measuring the initial hydrolysis rate of PTP1B in the presence of increasing pNPP concentration (seven different concentrations in the 0.5–25 mM range). All assays were carried out in duplicate. Data obtained were fitted using the Michaelis-Menten equation. To evaluate the action mechanism of inhibitors, we studied the dependence of Km and Vmax from inhibitors concentration, using three different inhibitor concentrations, at least. Data obtained were then analysed by double reciprocal plot (Lineweaver-Burk plot).

[5] = biological target: T1, human recombinant AR; experiment: Reversibility of AR inhibition (dialysis); type: biochemical; details: for AR enzyme activity recovered after removal of the inhibitor upon extensive dialysis: 5 μM compound before dialysis; for AR enzyme activity measured in the presence of compound: 5 μM compound, 2 mM L-idose, before dialysis
Protocol: In order to evaluate the reversibility of the inhibitory action, 8 mU of purified AR were assayed in the presence of 5 μM of compounds 4a, 4e and 4f. In these conditions less than 15% of the enzyme activity was measured in the presence of 2 mM L-idose as substrate. The mixture was then extensively dialysed on Amicon ultrafiltration membrane (cut off 10 KDa) against 10 mM sodium phosphate buffer, pH 7.0. After dialysis, the enzyme activity was again measured as above and compared to that of a mixture in the absence of inhibitor and treated in the same conditions.

[6] = biological target: T2, human recombinant PTP1B; experiment: Reversibility assay (dilution test) with PTP1B; type: biochemical; details: saturating inhibitor, 60 min 37 °C, diluted 400 folds
Protocol: An aliquot of the enzyme was incubated for 60 min at 37 °C in the presence of saturating amount of PTP1B inhibitor. After this time, an aliquot of the enzyme was withdrawn and diluted 400 folds in the assay buffer containing 2.5 mM of pNPP. After 15 min, the reaction was stopped by adding 1 mL of KOH 0.2 M. The amount of pNP released was calculating measuring the absorbance at 400 nm of solutions using a spectrophotometer. Data obtained were normalized respect to control tests, which was carried out diluting the enzyme with DMSO, the solvent used to dissolve all compounds. Data reported in the figure represent the mean value +/− S.E.M. (n = 3).

[7] = biological target: T1, human recombinant AR; set-up: method as in PMID 30342956; details: reversible inhibitors; cited from earlier work
[8] = biological target: T2, human recombinant PTP1B; set-up: method as in PMID 30342956; details: reversible inhibitors; cited from earlier work

SMILES | IC50 [1] [µM] | IC50 [2] [µM] | AR Ki relative to K′i [3] | AR K′i (apparent dissociation constant, EIS complex) [3] [µM] | Mechanism of AR inhibition [3] | Ki [3] [µM] | Mechanism of PTP1B inhibition [4] | PTP1B K′i (apparent dissociation constant, EIS complex) [4] [µM] | Ki [4] [µM] | AR enzyme activity recovered after removal of the inhibitor upon extensive dialysis [5] | AR enzyme activity measured in the presence of compound [5] | Reversibility of PTP1B inhibition [6] | Mechanism of AR inhibition [7] | Mechanism of PTP1B inhibition [8] | melting point [°C]
O=C(O)CCN1C(=O)/C(=C/c2cccc(Oc3ccccc3)c2)SC1=S [4a, 3-{(5Z)[4-Oxo-5-(3-phenoxyphenyl)methylidene-2-thioxothiazolidin-3-yl]}propanoic acid] | 2.2 ± 0.1 | 34.1 ± 0.5 | approximately 4 fold | 1.4 ± 0.022 | mixed-type inhibition | 5 ± 0.57 | mixed-type non-competitive inhibitors | 68.9 ± 1.5 | 10.6 ± 1.7 | more than 90% | less than 15% | reversible inhibitors | – | – | –
O=C(O)CN1C(=O)/C(=C/c2cccc(OCCc3ccccc3)c2)SC1=S [2e, (4-oxo-5-{[3-(2-phenylethoxy)pheny]lmethylidene}-2-thioxothiazolidin-3-yl)acetic acid] | – | – | – | – | – | – | – | – | – | – | – | – | uncompetitive | non-competitive | –
O=C(O)CN1C(=O)S/C(=C\c2cccc(OCCc3ccccc3)c2)C1=O [1e] | – | – | – | – | – | – | – | – | – | – | – | – | uncompetitive | non-competitive | –
O=C(O)CCN1C(=O)/C(=C/c2cccc(OCCc3ccccc3)c2)SC1=S [4e, 3-[(5Z)-4-Oxo-{5-[3-(2-phenylethoxy)phenyl]methylidene}-2-thioxothiazolidin-3-yl]propanoic acid] | 2.3 ± 0.1 | 55.5 ± 0.8 | at least ten-fold higher | 0.66 ± 0.30 | uncompetitive inhibitors | > 8 | competitive inhibitor | >12 | 2.2 ± 0.3 | more than 90% | less than 15% | reversible inhibitors | – | – | 136 to 138

From article PMC7828111, “In Search for Multi-Target Ligands as Potential Agents for Diabetes Mellitus and Its Complications—A Structure-Activity Relationship Study on Inhibitors of Aldose Reductase and Protein Tyrosine Phosphatase 1B” (Molecules, 2021)
